Values quoted from earlier work in US20220364053A1, “HUMAN CELLULAR MODEL FOR INVESTIGATING CORTICO-STRIATAL-MIDBRAIN NEURAL PATHWAYS” (The Board of Trustees of the Leland Stanford Junior …, priority 2019, published 2022).
Blank lines part the entries; values can stand above or below the compound they belong to.

Experiments:
[1] = molecular target: element-binding protein (CBP) (Homo sapiens, UniProt Q92793); conditions: read-out: IC50, binds to element-binding protein (CBP)
[2] = test system: Wnt-stimulated cellular responses
[3] = test system: Wnt processing and secretion; conditions: cell-free assay; read-out: IC50, inhibitor of Wnt processing and secretion
Porcn = molecular target: T1, Porcn (Homo sapiens, UniProt Q9H237); conditions: read-out: EC50, Porcn inhibitor
T1 sequence (Q9H237 1-461): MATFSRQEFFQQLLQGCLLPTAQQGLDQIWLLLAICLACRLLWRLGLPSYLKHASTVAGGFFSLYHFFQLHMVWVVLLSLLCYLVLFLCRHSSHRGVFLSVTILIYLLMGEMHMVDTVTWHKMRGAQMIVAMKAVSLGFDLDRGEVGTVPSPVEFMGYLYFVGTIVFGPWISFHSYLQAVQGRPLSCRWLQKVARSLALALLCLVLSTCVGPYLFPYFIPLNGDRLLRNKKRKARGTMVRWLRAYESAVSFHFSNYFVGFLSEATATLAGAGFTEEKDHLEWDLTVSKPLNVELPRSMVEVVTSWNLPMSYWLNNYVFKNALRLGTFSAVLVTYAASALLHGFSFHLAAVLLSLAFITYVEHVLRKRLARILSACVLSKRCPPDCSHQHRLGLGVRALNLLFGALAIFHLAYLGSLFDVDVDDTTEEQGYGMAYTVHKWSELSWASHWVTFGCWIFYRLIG

Wnt signaling = conditions: TM3 cells; read-out: IC50, inhibits Wnt signaling
Smo heptahelical domain = Smo heptahelical domain (Homo sapiens, UniProt Q99835)
Sequence of Smo heptahelical domain (Q99835 28-787): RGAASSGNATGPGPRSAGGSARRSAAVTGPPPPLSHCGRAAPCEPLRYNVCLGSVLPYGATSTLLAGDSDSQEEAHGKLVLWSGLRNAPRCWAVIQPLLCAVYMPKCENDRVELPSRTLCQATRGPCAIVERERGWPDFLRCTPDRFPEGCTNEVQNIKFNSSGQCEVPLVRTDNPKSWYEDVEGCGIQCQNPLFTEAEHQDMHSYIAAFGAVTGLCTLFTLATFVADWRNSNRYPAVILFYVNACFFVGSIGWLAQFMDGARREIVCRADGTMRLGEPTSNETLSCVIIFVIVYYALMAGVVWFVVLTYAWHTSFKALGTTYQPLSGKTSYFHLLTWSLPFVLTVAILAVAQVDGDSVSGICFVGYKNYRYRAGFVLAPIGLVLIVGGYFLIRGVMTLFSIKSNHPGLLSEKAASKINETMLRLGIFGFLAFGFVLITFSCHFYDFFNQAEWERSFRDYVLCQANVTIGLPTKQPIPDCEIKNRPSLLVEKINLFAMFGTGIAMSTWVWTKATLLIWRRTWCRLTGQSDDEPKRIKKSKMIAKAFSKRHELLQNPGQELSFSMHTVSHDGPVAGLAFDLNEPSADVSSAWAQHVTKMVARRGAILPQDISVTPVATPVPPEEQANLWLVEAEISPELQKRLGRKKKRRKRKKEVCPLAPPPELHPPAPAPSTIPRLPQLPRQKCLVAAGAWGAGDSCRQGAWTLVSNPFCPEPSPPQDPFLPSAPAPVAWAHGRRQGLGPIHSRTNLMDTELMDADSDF

TNKS2 = molecular target: T2, TNKS2 (Homo sapiens, UniProt Q9H2K2)
T2 sequence (Q9H2K2 1-1166): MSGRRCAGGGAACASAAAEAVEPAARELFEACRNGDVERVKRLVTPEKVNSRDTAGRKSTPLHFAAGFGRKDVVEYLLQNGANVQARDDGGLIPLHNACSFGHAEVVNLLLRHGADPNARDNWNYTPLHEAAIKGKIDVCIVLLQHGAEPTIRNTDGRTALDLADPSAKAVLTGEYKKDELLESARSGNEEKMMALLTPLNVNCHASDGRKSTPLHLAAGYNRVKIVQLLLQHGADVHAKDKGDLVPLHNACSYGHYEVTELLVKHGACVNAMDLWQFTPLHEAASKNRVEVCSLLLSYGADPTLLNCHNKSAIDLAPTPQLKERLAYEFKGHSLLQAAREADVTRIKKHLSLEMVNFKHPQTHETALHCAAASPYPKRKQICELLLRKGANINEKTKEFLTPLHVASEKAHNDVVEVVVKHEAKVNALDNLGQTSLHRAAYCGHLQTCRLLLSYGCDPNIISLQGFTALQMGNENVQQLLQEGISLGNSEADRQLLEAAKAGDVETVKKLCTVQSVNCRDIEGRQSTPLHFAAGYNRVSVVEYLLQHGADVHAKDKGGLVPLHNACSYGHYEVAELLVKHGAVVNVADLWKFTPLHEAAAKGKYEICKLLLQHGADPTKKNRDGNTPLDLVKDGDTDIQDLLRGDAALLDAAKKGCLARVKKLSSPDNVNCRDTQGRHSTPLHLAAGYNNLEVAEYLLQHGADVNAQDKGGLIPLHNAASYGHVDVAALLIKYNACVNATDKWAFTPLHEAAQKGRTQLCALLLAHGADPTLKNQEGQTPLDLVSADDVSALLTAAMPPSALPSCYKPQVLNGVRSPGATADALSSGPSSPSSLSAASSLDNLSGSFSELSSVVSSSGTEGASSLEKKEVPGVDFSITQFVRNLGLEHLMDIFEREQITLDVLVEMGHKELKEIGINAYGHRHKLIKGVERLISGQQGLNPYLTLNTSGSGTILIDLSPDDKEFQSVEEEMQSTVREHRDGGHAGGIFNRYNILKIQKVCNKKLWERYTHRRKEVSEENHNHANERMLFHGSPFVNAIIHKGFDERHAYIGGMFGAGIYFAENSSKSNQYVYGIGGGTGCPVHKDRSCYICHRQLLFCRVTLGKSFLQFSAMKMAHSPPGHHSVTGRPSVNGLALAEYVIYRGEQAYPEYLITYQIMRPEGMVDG

[4] = molecular target: Wnt3A-mediated activation of a multimerized TCF-binding site driving luciferase; conditions: HEK293 cells

Sequence of element-binding protein (CBP) (Q92793 whole entry): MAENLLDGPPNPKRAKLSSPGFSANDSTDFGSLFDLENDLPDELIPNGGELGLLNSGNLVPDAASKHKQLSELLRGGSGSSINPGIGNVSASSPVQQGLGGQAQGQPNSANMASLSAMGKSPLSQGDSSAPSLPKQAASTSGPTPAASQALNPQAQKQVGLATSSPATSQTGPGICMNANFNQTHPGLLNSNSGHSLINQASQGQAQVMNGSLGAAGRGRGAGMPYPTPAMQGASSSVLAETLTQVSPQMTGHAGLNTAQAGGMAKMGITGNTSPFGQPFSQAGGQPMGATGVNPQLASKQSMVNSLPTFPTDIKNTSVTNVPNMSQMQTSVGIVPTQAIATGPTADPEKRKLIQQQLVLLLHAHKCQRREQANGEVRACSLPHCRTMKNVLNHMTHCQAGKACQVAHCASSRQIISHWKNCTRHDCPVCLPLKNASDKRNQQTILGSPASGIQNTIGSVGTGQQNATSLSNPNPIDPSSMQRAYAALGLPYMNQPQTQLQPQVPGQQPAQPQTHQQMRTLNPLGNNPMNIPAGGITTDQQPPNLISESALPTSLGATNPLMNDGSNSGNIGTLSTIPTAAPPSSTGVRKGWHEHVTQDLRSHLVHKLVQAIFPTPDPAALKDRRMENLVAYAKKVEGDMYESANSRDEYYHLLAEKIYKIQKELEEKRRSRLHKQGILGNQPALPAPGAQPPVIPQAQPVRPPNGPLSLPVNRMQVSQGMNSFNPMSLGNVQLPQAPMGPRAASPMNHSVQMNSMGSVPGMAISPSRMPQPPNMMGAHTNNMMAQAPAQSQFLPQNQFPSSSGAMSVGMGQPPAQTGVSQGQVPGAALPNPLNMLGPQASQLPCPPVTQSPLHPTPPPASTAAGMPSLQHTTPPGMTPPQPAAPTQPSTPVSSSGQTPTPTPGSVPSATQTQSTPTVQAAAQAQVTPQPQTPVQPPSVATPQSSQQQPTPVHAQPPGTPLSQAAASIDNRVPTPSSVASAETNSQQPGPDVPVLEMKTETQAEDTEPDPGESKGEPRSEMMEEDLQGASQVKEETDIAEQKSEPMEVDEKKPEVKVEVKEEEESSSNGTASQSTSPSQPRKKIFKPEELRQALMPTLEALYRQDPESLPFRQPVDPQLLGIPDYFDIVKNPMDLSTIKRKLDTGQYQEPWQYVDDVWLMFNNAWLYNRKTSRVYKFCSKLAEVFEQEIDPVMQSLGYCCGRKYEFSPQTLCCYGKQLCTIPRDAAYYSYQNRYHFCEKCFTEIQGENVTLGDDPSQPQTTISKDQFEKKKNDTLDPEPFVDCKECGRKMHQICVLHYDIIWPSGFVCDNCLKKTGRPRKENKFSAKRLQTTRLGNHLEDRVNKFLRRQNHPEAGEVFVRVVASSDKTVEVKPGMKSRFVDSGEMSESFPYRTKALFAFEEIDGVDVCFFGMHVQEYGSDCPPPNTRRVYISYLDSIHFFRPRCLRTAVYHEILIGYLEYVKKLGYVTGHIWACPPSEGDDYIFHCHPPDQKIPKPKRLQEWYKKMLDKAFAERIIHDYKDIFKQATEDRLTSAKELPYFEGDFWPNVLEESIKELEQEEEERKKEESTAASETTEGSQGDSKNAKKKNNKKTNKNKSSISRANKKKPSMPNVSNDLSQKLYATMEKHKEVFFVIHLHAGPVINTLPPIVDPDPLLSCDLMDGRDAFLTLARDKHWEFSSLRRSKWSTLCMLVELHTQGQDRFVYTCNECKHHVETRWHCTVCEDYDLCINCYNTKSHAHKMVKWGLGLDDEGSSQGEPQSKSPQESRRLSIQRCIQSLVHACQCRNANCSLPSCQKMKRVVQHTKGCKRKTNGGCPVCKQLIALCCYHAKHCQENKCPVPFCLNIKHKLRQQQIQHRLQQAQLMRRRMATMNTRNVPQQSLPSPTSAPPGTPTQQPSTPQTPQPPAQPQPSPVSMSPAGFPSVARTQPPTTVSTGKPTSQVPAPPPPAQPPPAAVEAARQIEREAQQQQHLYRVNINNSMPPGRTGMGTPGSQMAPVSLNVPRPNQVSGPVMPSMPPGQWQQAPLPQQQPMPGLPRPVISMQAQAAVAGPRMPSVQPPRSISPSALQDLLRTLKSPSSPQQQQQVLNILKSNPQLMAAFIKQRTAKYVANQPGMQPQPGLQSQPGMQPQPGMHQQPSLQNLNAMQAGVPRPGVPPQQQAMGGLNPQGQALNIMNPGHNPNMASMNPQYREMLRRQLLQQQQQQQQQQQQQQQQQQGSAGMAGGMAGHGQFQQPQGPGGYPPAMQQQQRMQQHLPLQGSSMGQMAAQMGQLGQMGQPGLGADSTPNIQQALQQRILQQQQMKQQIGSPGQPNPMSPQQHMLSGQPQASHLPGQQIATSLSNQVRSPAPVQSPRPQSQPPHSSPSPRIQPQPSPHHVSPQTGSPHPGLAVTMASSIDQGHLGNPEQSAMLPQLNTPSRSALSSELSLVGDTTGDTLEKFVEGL

Structure (SMILES): O=C1[C@H](Cc2ccc(O)cc2)N2C(=O)CCN(C(=O)NCc3ccccc3)[C@H]2CN1Cc1cccc2ccccc12 [ICG-001]
IC50 [1]: 3000 nM

Structure (SMILES): Cc1ccc2nc(NC(=O)CSc3nc4c(c(=O)n3-c3ccccc3)SCC4)sc2c1 [IWP-2]
effect against Wnt-stimulated cellular responses [2]: no effect
IC50 [3]: 27 nM

Structure (SMILES): CNC1CCC(N(Cc2cccc(-c3ccncc3)c2)C(=O)c2sc3ccccc3c2Cl)CC1 (centres unmarked) [SAG]
Kd (Smo heptahelical domain): 59 nM

More lines, now with the values ahead:

EC50 (Porcn): 0.5 nM
Structure (SMILES): O=C(CSc1nc2c(c(=O)n1-c1ccccc1)SCC2)Nc1ccc(-c2ccccc2)cn1 [IWP-L6]

IC50 (Wnt signaling): 0.4 nM
Structure (SMILES): Cc1cc(-c2ncc(CC(=O)Nc3ccc(-c4cnccn4)cn3)cc2C)ccn1 [LGK-974]

IC50 (TNKS2): 15 nM
Structure (SMILES): COc1ccc(-n2c(SCCCN3C(=O)c4cccc5cccc(c45)C3=O)nnc2-c2ccncc2)cc1 [WIKI4]

IC50 [4]: 74000 nM
Structure (SMILES): Cc1cc(-c2ccc(CC(=O)Nc3ccc(-c4cccnc4)cc3)cc2)ccn1 [Wnt-C59]
